Structures are written as SMILES. Read-outs that look alike come from different tables or passages of the source.

This test concerns the target T1, recombinant human NaV1.8 stably transfected HEK cells (Homo sapiens, UniProt Q9Y5Y9).
T1 construct: expressed in transfected cells; host or cells: HEK cells, stably transfected
The experiment in a line: Compound profiling on NaV1.8, human NaV1.8 cell line, SyncroPatch384PE automated patch clamp assay (Example 102, first set of compounds, Table 16). The class given is cell-based. To be noted: human NaV1.8 HEK cells, Table 16 (first set of compounds). The protocol:
Compound Profiling on NaV1.8—Human NaV1.8 Cell Line—SyncroPatch384PE Assay
Compounds were tested on recombinant human NaV1.8 stably transfected HEK cells using the SyncroPatch384PE system, an automated patch clamp device. Cells were cultured at 37° C./5% CO2 in DMEM medium supplemented with GlutaMAX I, NEAA 1%, FBS 10% and seeded in T175 flasks. Cells were cultured at 30° C. one day prior to recording sodium currents. On the day of the recordings, cells were detached with 0.05% Trypsin-EDTA, resuspended in serum free DMEM medium and placed into the SyncroPatch384PE 6° C. pre-cooled cell hotel and shaken at 200 rpm. Intracellular solution (IC) contained, in mM: 10, CsCl; 110, CsF; 20, EGTA; 10, HEPES. Extracellular solution (EC) contained, in mM: 140, NaCl; 4, KCl; 5, Glucose; 10, HEPES; 2, CaCl2; 1, MgCl2. Washing solution contained, in mM: 40, NMDG; 100, NaCl; 4, KCl; 10, Glucose; 10, HEPES; 5, CaCl2; 1, MgCl2.
Compounds were tested in triplicate in 0.1% DMSO and 0.030% Pluronic Acid. Compounds were diluted 1:3 in EC solution to create a 10-point concentration response curve, spanning a final concentration range from 20-0.001 μM in the assay plate. Each plate contained tetracaine and another tool compound as positive controls. Up to 8 compounds were tested on one plate. 250 μM tetracaine and 0.1% DMSO were used as high and low controls, respectively. Whole cell patch clamp recordings were conducted according to Nanion's standard procedure for SyncroPatch384PE®. Cells were held at a holding potential of −120 mV. A depolarization step to 10 mV for 30 ms was applied (P1 measurement), followed by a hyperpolarization step to −100 mV for 100 ms. An inactivation step at −40 mV for 10 sec was applied before stepping to −100 mV for 20 ms, followed by a step to 10 mV for 30 ms (P2 measurement) and then back to −100 mV for 30 ms. Sweep interval was 15 sec with a sampling rate of 10 kHz. Following establishment of the whole-cell configuration in EC, two washing steps with reference buffer were performed to stabilize the baseline. Compounds were then applied by the SynchroPatch into each well and the current was recorded for five minutes in EC, followed by application of tetracaine to achieve full block at the end of the experiment. The potency of the compounds was assessed on two read-outs, resting state block (P1 measurement) or inactivated state block (P2 measurement) to obtain IC50 values. Values were normalized to high (tetracaine) and low (DMSO) controls. The IC50 values are listed in Table 16 as follows: “A” represents an IC50 less than or equal to 20 nM, “B” represents an IC50 greater than 20 nM to less than or equal to 40 nM, “C” represents an IC50 greater than 40 nM to less than or equal to 200 nM, “D” represents an IC50 greater than 200 nM to less than or equal to 500 nM.

[1] abbreviates: inactivated state block (P2 measurement), read-out: P2IC50.
The mark [2] stands for this setting: resting state block (P1 measurement), read-out: P1IC50.

T1 sequence (Q9Y5Y9 whole entry): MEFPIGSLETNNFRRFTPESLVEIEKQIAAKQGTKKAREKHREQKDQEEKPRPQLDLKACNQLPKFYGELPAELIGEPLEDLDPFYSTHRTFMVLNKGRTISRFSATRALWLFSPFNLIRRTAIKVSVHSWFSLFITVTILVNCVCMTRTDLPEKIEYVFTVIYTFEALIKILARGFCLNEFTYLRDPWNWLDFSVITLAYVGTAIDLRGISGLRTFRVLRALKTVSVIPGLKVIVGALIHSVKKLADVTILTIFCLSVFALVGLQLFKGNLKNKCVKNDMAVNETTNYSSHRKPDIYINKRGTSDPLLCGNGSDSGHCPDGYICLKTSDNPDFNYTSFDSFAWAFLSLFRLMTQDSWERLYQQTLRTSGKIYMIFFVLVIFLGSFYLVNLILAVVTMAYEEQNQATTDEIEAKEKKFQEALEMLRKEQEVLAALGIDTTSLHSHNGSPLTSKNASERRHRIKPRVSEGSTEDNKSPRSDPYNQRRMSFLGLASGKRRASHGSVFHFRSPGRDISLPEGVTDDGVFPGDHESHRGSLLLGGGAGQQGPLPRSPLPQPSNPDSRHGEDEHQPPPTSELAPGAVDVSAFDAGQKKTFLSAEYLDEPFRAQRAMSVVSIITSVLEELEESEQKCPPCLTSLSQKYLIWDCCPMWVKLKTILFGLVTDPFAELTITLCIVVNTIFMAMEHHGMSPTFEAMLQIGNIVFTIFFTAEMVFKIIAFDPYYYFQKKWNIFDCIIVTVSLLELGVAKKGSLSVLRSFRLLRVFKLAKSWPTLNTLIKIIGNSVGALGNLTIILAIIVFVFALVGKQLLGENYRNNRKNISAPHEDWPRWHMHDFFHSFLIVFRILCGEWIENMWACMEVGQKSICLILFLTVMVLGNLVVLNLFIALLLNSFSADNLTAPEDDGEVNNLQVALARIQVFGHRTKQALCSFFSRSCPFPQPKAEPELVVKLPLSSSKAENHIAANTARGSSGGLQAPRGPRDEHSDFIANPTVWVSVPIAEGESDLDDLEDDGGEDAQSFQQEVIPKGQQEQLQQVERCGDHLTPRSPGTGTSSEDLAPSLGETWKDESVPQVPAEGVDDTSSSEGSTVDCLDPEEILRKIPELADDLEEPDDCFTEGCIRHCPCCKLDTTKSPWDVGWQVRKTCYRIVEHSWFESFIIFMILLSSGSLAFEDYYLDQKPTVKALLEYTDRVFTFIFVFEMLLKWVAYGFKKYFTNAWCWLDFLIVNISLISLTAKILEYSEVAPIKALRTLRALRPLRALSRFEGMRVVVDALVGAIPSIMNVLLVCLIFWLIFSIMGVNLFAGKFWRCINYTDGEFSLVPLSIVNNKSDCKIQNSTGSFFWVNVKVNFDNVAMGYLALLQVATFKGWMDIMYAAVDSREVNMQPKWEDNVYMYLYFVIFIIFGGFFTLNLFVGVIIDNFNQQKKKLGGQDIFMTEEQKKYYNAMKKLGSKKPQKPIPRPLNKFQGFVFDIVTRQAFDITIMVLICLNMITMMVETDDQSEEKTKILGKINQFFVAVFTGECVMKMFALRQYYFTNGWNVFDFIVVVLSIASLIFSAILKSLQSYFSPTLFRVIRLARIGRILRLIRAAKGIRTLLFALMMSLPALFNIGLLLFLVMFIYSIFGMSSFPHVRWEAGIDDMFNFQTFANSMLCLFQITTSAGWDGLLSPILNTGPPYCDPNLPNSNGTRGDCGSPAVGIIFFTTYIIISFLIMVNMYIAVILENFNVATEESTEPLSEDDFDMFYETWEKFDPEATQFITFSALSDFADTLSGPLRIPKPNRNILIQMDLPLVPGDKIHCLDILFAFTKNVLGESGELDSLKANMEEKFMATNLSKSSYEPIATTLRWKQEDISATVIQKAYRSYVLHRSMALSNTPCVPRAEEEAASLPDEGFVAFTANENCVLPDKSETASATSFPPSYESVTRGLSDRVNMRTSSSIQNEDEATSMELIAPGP

In the case of `CS(=N)(=O)c1cccc(NC(=O)c2cc(C(F)(F)F)cnc2OC2CC(C(F)(F)F)C2)c1` (mixture of isomers) [Compound 1666], the IC50 fell in the range of 40 to 200 nM under setting [1] and 40 to 200 nM under setting [2].

With `NC(=O)c1cccc(NC(=O)c2cc(C(F)(F)F)cnc2OC2CC(C(F)(F)F)C2)c1` (mixture of isomers) [Compound 1667], the IC50 was 200 to 500 nM under setting [1] and 200 to 500 nM under setting [2].

As to `N#CC1CC(Oc2ncc(C(F)(F)F)cc2C(=O)Nc2cccc(C(N)=O)c2)C1` (mixture of isomers) [Compound 1668], the IC50 runs as follows: under setting [1], 200 to 500 nM; under setting [2], 200 to 500 nM.

Take `NC(=O)c1ccc(NC(=O)c2cc(C(F)(F)F)cnc2OC2CC(C(F)(F)F)C2)cc1` (mixture of isomers) [Compound 1670]: the IC50 fell in the range of 200 to 500 nM under setting [1] and 200 to 500 nM under setting [2].

On to `N#CC1CC(Oc2ncc(C(F)(F)F)cc2C(=O)Nc2ccc(C(N)=O)cc2)C1` (mixture of isomers) [Compound 1671], for which the IC50 is, setting by setting: under setting [1], 200 to 500 nM; under setting [2], 200 to 500 nM.

Regarding `Cc1c(C(F)(F)F)nnc(Oc2ccc(Cl)cc2F)c1C(=O)Nc1cccc(S(C)(=N)=O)c1` (single isomer, unassigned) [Compound 1471, 3-(4-chloro-2-fluoro-phenoxy)-5-methyl-N-[3-(methylsulfonimidoyl)phenyl]-6-(trifluoromethyl)pyridazine-4-carboxamide], the IC50 by setting is: under setting [1], no more than 20 nM; under setting [2], no more than 20 nM.

For the compound `Cc1c(C(F)(F)F)nnc(Oc2ccc(Cl)cc2F)c1C(=O)Nc1cccc(S(C)(=N)=O)c1` (single isomer, unassigned) [Compound 1472, 3-(4-chloro-2-fluoro-phenoxy)-5-methyl-N-[3-(methylsulfonimidoyl)phenyl]-6-(trifluoromethyl)pyridazine-4-carboxamide], the IC50 under setting [2] is no more than 20 nM.

Consider `COc1c(Oc2nnc(C(F)(F)F)c(C)c2C(=O)Nc2cccc(S(C)(=N)=O)c2)ccc(F)c1F` (single isomer, unassigned) [Compound 1473, 3-(3,4-difluoro-2-methoxy-phenoxy)-5-methyl-N-[3-(methylsulfonimidoyl)phenyl]-6-(trifluoromethyl)pyridazine-4-carboxamide], for which the IC50 runs as follows: under setting [1], no more than 20 nM; under setting [2], no more than 20 nM.

`COc1c(Oc2nnc(C(F)(F)F)c(C)c2C(=O)Nc2cccc(S(C)(=N)=O)c2)ccc(F)c1F` (single isomer, unassigned) [Compound 1474, 3-(3,4-difluoro-2-methoxy-phenoxy)-5-methyl-N-[3-(methylsulfonimidoyl)phenyl]-6-(trifluoromethyl)pyridazine-4-carboxamide]: the IC50 under setting [2] was no more than 20 nM.

On to `Cc1c(C(F)(F)F)nnc(Oc2ccc(OC(F)(F)F)c(F)c2F)c1C(=O)Nc1cccc(S(C)(=N)=O)c1` (single isomer, unassigned) [Compound 1477, 3-[2,3-difluoro-4-(trifluoromethoxy)phenoxy]-5-methyl-N-[3-(methylsulfonimidoyl)phenyl]-6-(trifluoromethyl)pyridazine-4-carboxamide], for which the IC50 is, setting by setting: under setting [1], no more than 20 nM; under setting [2], no more than 20 nM.

In the case of `Cc1c(C(F)(F)F)nnc(Oc2ccc(OC(F)(F)F)c(F)c2F)c1C(=O)Nc1cccc(S(C)(=N)=O)c1` (single isomer, unassigned) [Compound 1478, 3-[2,3-difluoro-4-(trifluoromethoxy)phenoxy]-5-methyl-N-[3-(methylsulfonimidoyl)phenyl]-6-(trifluoromethyl)pyridazine-4-carboxamide], the IC50 under setting [2] was no more than 20 nM.

For `COc1cc(C#N)ccc1Oc1nnc(C(F)(F)F)c(C)c1C(=O)Nc1cccc([S@@](C)(=N)=O)c1` (single isomer, unassigned) [Compound 1479], the IC50 was no more than 20 nM under setting [1] and no more than 20 nM under setting [2].

With `COc1cc(C#N)ccc1Oc1nnc(C(F)(F)F)c(C)c1C(=O)Nc1cccc([S@](C)(=N)=O)c1` (single isomer, unassigned) [Compound 1480], the IC50 is no more than 20 nM under setting [1] and no more than 20 nM under setting [2].

On to `COc1cc(Cl)ccc1Oc1nnc(C(F)(F)F)c(C)c1C(=O)Nc1cccc(S(C)(=N)=O)c1` (single isomer, unassigned) [Compound 1481, 3-(4-chloro-2-methoxyphenoxy)-5-methyl-N-(3-(S-methylsulfonimidoyl)phenyl)-6-(trifluoromethyl)pyridazine-4-carboxamide], for which the IC50 is, setting by setting: under setting [1], no more than 20 nM; under setting [2], no more than 20 nM.

Turning to `COc1cc(Cl)ccc1Oc1nnc(C(F)(F)F)c(C)c1C(=O)Nc1cccc(S(C)(=N)=O)c1` (single isomer, unassigned) [Compound 1482, 3-(4-chloro-2-methoxyphenoxy)-5-methyl-N-(3-(S-methylsulfonimidoyl)phenyl)-6-(trifluoromethyl)pyridazine-4-carboxamide], the IC50 under setting [2] was no more than 20 nM.

Consider `Cc1ccc(Oc2nnc(C(F)(F)F)c(C)c2C(=O)Nc2cccc(S(C)(=N)=O)c2)c(C)n1` (single isomer, unassigned) [Compound 1484, 3-[(2,6-dimethylpyridin-3-yl)oxy]-N-{3-[imino(methyl)oxo-λ^6-sulfanyl]phenyl}-5-methyl-6-(trifluoromethyl)pyridazine-4-carboxamide], for which the IC50 was 200 to 500 nM under setting [1] and 200 to 500 nM under setting [2].

As to `Cc1ccc(Oc2nnc(C(F)(F)F)c(C)c2C(=O)Nc2cccc(S(C)(=N)=O)c2)c(C)n1` (single isomer, unassigned) [Compound 1485, 3-[(2,6-dimethylpyridin-3-yl)oxy]-N-{3-[imino(methyl)oxo-λ^6-sulfanyl]phenyl}-5-methyl-6-(trifluoromethyl)pyridazine-4-carboxamide], the IC50 under setting [2] was in the range of 200 to 500 nM.

On to `Cc1c(Oc2nnc(C(F)(F)F)c(C)c2C(=O)Nc2cccc(S(C)(=N)=O)c2)ccc(Cl)c1F` (single isomer, unassigned) [Compound 1487, 3-(4-chloro-3-fluoro-2-methyl-phenoxy)-5-methyl-N-[3-(methylsulfonimidoyl)phenyl]-6-(trifluoromethyl)pyridazine-4-carboxamide], for which the IC50 is no more than 20 nM under setting [1] and no more than 20 nM under setting [2].

Take `COc1c(Oc2nnc(C(F)(F)F)c(C)c2C(=O)Nc2cccc(S(C)(=N)=O)c2)ccc(Cl)c1F` (single isomer, unassigned) [Compound 1490, 3-(4-chloro-3-fluoro-2-methoxy-phenoxy)-5-methyl-N-[3-(methylsulfonimidoyl)phenyl]-6-(trifluoromethyl)pyridazine-4-carboxamide]: the IC50 was no more than 20 nM under setting [1] and no more than 20 nM under setting [2].

Consider `Cc1c(C(F)(F)F)nnc(Oc2ccc(OC3CCC3)c(F)c2F)c1C(=O)Nc1cccc(S(C)(=N)=O)c1` (single isomer, unassigned) [Compound 1493, 3-(4-cyclobutoxy-2,3-difluorophenoxy)-N-{3-[imino(methyl)oxo-λ^6-sulfanyl]phenyl}-5-methyl-6-(trifluoromethyl)pyridazine-4-carboxamide], for which the IC50 runs as follows: under setting [1], no more than 20 nM; under setting [2], no more than 20 nM.

For `Cc1c(C(F)(F)F)nnc(Oc2ccc(OC3CCC3)c(F)c2F)c1C(=O)Nc1cccc(S(C)(=N)=O)c1` (single isomer, unassigned) [Compound 1494, 3-(4-cyclobutoxy-2,3-difluorophenoxy)-N-{3-[imino(methyl)oxo-λ^6-sulfanyl]phenyl}-5-methyl-6-(trifluoromethyl)pyridazine-4-carboxamide], the IC50 under setting [1] lay within 20 to 40 nM and the IC50 under setting [2] was no more than 20 nM.

On to `Cc1c(C(F)(F)F)nnc(Oc2ccc(OC(F)(F)F)cc2F)c1C(=O)Nc1cccc(S(C)(=N)=O)c1` (single isomer, unassigned) [Compound 1496, 3-[2-fluoro-4-(trifluoromethoxy)phenoxy]-N-{3-[imino(methyl)oxo-λ^6-sulfanyl]phenyl}-5-methyl-6-(trifluoromethyl)pyridazine-4-carboxamide], for which the IC50 was no more than 20 nM under setting [1] and no more than 20 nM under setting [2].
